Assay results from patent publication USRE38132E1, “Phenylpyrrolidines, phenylimidazolidines,3-phenyl-1,3-oxizolidines and 3-phenyl-1,3-thiazolidines and their use in the treatment of inflammatory disease” (Boehringer Ingelheim Pharmaceuticals, Inc., priority 1997, dated 2003).
Like-named read-outs stand apart in the source and are kept apart here.

Assays:
[1] = biological target: T1, interaction of ICAM-1 with the Leukointegrin CD18/CD11a (LFA-1) (Homo sapiens, UniProt P05107+P20701); experiment: Assay to determine inhibition of LFA-1 binding to ICAM-1 (immunopurified LFA-1 on plate-bound sICAM-1, ELISA readout)
T1 construct: endogenous in cells; sICAM-1: made in house, secreted from transfected CHO DUX cells
T1 sequence (P20701 26-1170): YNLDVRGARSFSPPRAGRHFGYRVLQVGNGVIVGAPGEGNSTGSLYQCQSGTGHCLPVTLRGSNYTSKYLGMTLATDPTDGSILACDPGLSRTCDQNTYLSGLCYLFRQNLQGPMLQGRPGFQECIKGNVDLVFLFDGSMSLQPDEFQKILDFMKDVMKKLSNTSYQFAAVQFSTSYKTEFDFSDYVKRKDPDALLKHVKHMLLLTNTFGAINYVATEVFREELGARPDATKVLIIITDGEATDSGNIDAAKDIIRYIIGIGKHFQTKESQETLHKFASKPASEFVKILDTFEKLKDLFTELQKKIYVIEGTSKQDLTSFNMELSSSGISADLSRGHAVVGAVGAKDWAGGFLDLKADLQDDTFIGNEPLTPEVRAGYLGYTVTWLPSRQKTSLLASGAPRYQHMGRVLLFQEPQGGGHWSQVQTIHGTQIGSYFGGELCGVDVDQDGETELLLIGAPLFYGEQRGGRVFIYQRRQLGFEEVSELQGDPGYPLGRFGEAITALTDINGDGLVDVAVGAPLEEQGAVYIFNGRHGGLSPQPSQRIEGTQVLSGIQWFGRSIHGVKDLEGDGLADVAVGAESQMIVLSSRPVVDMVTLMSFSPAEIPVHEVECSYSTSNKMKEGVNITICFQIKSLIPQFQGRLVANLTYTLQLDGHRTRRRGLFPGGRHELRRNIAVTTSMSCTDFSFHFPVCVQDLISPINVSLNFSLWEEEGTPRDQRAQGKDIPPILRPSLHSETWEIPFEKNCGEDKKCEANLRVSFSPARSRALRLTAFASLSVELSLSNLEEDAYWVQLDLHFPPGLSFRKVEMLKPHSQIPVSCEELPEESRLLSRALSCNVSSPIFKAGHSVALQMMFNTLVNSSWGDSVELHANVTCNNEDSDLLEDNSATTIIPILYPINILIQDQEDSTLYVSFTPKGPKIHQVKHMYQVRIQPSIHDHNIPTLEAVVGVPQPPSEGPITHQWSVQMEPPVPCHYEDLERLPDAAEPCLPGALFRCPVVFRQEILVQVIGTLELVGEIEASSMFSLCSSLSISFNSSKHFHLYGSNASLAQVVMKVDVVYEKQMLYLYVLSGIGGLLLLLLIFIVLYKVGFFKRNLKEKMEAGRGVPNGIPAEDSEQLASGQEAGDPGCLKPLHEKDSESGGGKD
T1 sequence (P05107 23-769): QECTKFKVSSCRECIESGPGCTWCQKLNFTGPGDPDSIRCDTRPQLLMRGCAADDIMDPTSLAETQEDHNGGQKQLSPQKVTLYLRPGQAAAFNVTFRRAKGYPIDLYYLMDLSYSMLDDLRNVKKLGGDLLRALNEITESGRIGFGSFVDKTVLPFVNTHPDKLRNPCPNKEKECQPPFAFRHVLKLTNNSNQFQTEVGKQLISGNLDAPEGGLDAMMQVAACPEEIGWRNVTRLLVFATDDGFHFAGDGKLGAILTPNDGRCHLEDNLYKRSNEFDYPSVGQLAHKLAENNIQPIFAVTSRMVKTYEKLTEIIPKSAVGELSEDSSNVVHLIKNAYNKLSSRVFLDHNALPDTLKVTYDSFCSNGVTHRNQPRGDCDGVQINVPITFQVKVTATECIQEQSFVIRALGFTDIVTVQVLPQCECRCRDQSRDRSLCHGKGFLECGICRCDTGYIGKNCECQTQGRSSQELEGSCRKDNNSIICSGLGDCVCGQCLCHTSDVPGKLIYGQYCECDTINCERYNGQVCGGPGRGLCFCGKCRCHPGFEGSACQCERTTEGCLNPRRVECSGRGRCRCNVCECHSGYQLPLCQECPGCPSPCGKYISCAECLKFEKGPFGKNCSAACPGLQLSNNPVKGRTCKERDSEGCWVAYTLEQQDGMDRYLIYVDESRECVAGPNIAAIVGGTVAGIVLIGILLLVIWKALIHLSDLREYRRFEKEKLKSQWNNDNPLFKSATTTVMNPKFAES
Excerpt: Assay to Determine Inhibition of LFA-1 Binding to ICAM-1 Purpose of Assay: This assay protocol is designed to study the direct antagonism, by a test compound, of the interaction of the CAM, ICAM-1 with the Leukointegrin CD18/CD11a (LFA-1). […] After collection and neutralization of fractions from the TS2/4 column, samples are pooled and precleared with Protein G agarose. […] Wells are washed 3 times with Diluting Buffer. The bound LFA-1 is detected by the addition of a polyclonal antibody directed against a peptide corresponding to the CD18 cytoplasmic tail in a 1:100 dilution with Diluting Buffer and 1% BSA and allowed to incubate for 45 min at 37° C. Wells are washed 3 times with Diluting Buffer and the bound polyclonal antibody is detected by the addition of a 1:4000 dilution of horse radish peroxidase conjugated to goat immunoglobulin directed against rabbit immunoglobulin. […] The lack of the addition of LFA-1 to the binding assay is used as a background control for all samples. A dose-response curve is obtained for all test compounds. Results of these tests are reported as Kd's in μM.

[2] = test system: cell bound form of LFA-1 (CD18, CD11a) with ICAM-1, SKW3 cells; experiment: Inhibition of SKW3 cell binding to ICAM-1 (PMA-stimulated); format: cell-based, human; settings: read-out: Assay to Detect SKW3 Cells Binding to ICAM IC50
Outline: (§1)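 Plates coated with sICAM-1 (40 μg/mL) or fibronectin (100 μg/mL) for 1 h; SKW3 cells in RPMI/15% FBS activated with PMA (50 μg/mL final) added with compound, 2 h at 37° C. Unbound cells washed off; value is concentration (μM) giving 50% binding inhibition.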

[3] = test system: cell bound fibronectin receptor (VLA4) with fibronectin, SKW3 cells; experiment: Inhibition of SKW3 cell binding to fibronectin (selectivity counter-assay); format: cell-based, human; settings: for IC50: Homo sapiens, read-out: Assay to Detect SKW3 Cells Binding to FIBRONECTIN IC50
Outline: as §1

[4] = test system: LFA-1 dependent aggregation of JY cells; experiment: JY cell homotypic aggregation assay (PMA-stimulated); format: cell-based, human
Excerpt: This aggregation can be enhanced by the addition of phorbol esters. […] Thus, the extent of LFA-1-dependent binding may be determined by assessing the extent of spontaneous or phorbol ester-dependent aggregate formation.
An agent which interferes with LFA-1 -dependent aggregation can be identified through the use of an assay capable of determining whether the agent interferes with either spontaneous, or phorbol ester-dependent aggregation of Epstein-Barr virus transformed cells. It is preferable to employ cells of the JY cell line (Terhost, L; et aL, Proc. Natl. Acad. Sci. USA, 1976, 73, 910) for the homotypic aggregation assay. This assay, capable of measuring LFA-1 dependent aggregation, may be employed to identify agents which act as antagonists to the LFA-1 dependent aggregation. Such agents may act by impairing the ability of either LFA-1 or ICAM-1 to mediate aggregation. Thus, agents may be examined to directly determine if they are antagonists of LFA-1 aggregation.
Description of Assay Protocol:
JY cells are cultured in RPMI 1640 culture medium supplemented with 10% fetal calf serum and 50 μg/mL gentamycin. The cells are cultured at 37° C. in an atmosphere of 5% CO2 at a relative humidity of 95%. JY cells used in this assay are washed two times with RPMI 1640 medium containing 5 mM HEPES buffer and resuspended to a concentration of 2·10^6 cells/mL. Added to flat-bottomed, 96-well microtiter plates are 50 μL of test compound diluted in complete medium, 50 μL of complete medium with or without purified monoclonal antibodies (negative and positive controls for inhibition, respectively), 50 μL of complete medium containing 200 ng/mL of the phorbol ester phorbol myristate acetate (PMA) and 100 μL of cells at a concentration of 2·10^6 cells/mL in complete medium. This yields a final concentration of […] PMA and 2·10^5 cells/well. Cells are allowed to settle spontaneously, and the degree of aggregation is scored at various time points. […] This procedure has been described by Rothlein, R. R.; et al., J. Exp. Med. 1986, 163, 1132-1149. This paper also reported that antibody to LFA-1 is capable of inhibiting the formation of aggregates.
Data are reported as the concentration or concentration range (in μM) at which 50% of binding is inhibited.

[5] = values marked e approximated from incomplete dose-response curve
[6] = values marked c: no inhibition observed up to highest dose
[7] = SKW3, values marked c: no inhibition observed up to highest dose
[8] = No inh = no inhibition observed up to highest dose, exact quantification not always possible due to intrinsic toxicity
[9] = Homo sapiens, SKW3, values marked c: no inhibition observed up to highest dose
[10] = SKW3, No inh = no inhibition observed up to highest dose, exact quantification not always possible due to intrinsic toxicity

Row | Compound | Kd [1, 5] [µM] | Cellular Toxicity Assay MTT LD50 (SKW3 cells) [µM] | IC50 [2, 6] [µM] | IC50 [3, 7] [µM] | IC50 ([4]; Homo sapiens) [µM] | Kd [1] [µM] | IC50 ([2]; Homo sapiens, SKW3) [µM] | Assay to Detect SKW3 Cells Binding to FIBRONECTIN IC50 [3, 8] | IC50 [2, 9] [µM] | IC50 [3, 10] [µM] | Assay to Detect SKW3 Cells Binding to FIBRONECTIN IC50 [3, 6] | IC50 [4] [µM]
1 | CC1(Cc2c[nH]c3ccccc23)NC(=O)N(c2cc(Cl)cc(Cl)c2)C1=O (stereo not drawn) [Example 23] | 0.77 | 50 to 100 | 25 to 50 | > 100 | 13 | – | – | – | – | – | – | –
2 | C[C@@]1(Cc2ccc(Br)cc2)C(=O)N(c2cc(Cl)cc(Cl)c2)C(=O)N1Cc1cccc(O)c1 [Example 245] | – | 25 to 50 | – | – | 0.7 | 0.21 | 1 to 3 | No inh^c | – | – | – | –
3 | CC1(Cc2ccccc2)NC(=O)N(c2cc(Cl)cc(Cl)c2)C1=O (stereo not drawn) [Example 18] | 0.76 | 125 to 250 | – | > 125 | 6 | – | – | – | 32 to 63 | – | – | –
4 | CC(C)N1C(=O)N(c2cc(Cl)cc(Cl)c2)C(=O)[C@]1(C)Cc1ccc(Br)cc1 [Example 274] | – | 200 to 300 | – | – | 3 | 0.14 | 25 to 50 | – | – | > 100 | – | –
5 | CN1C(=O)N(c2cc(Cl)cc(Cl)c2)C(=O)[C@@]1(C)Cc1ccc(-c2ccccn2)cc1 [Example 187] | 0.29 | 171 | – | – | 0.6 | – | – | – | 0.6 | – | No inh^c | –
6 | CC1(Cc2ccc(Br)cc2)NC(=O)N(c2cc(Cl)cc(Cl)c2)C1=S (stereo not drawn) [Example 81] | 0.08 | 25 to 50 | – | – | 6.3 | – | – | – | 1 to 3 | – | No inh^c | –
7 | CC(C)N1C(=O)N(c2cc(Cl)cc(Cl)c2)C(=O)[C@@]1(C)Cc1ccc(Br)cc1 [Example 273] | – | 150 to 300 | – | – | 2 | 0.19 | 38 | – | – | > 75 | – | –
8 | CN1C(=O)N(c2cc(Cl)cc(Cl)c2)C(=O)C1(C)Cc1ccc(Br)cc1O (stereo not drawn) [Example 248] | – | 50 to 100 | – | – | 0.7 | 0.37 | 9 to 18 | No inh^c | – | – | – | –
9 | C[C@@]1(Cc2ccc(Br)cc2)C(=O)N(c2cc(Cl)cc(Cl)c2)C(=O)N1C1CCNCC1 [Example 224] | – | <25 | – | – | 3.1 | 0.28 | 5 to 10 | No inh^c | – | – | – | –
10 | C[C@@]1(Cc2ccc(Br)cc2)C(=O)N(c2cc(Cl)cc(Cl)c2)C(=O)N1Cc1cccc(C(=N)N)c1 [Example 243] | – | 10 to 20 | – | – | 3.1 | 0.11 | 5 to 6 | No inh^c | – | – | – | –
11 | C[C@@]1(Cc2ccc(Br)cc2)C(=O)N(c2cc(Cl)cc(Cl)c2)C(=O)N1CCCN [Example 240] | – | 11 to 23 | – | – | 6.3 | 0.11 | 1 to 3 | – | – | 13.4 | – | –
12 | CN1C(=O)N(c2cc(Cl)cc(Cl)c2)C(=O)[C@@]1(C)Cc1ccc([N+](=O)[O-])cc1 [Example 134] | 0.05 | >250 | – | – | 0.1 | – | – | – | 1.5 | – | No inh^c | –
13 | CN1C(=O)N(c2cc(Cl)cc(Cl)c2)C(=O)C1(C)Cc1ccc(Cl)cc1 (stereo not drawn) [Example 154] | 0.094 | 200 | – | – | 0.4 | – | – | – | 5 to 10 | – | No inh^c | –
14 | C[C@]1(Cc2ccccc2)NC(=O)N(c2cc(Cl)cc(Cl)c2)C1=O [Example 265] | – | 130 to 250 | – | – | 3 | 0.28 | 19 to 38 | – | – | > 75 | – | –
15 | CN1C(=O)N(c2cc(Cl)c(Cl)c(Cl)c2)C(=O)C1(C)Cc1ccc(Br)cc1 (stereo not drawn) [Example 159] | 0.11 | 50 to 100 | – | – | 2 | – | – | – | 10 to 20 | – | No inh^c | –
16 | CN1C(=O)N(c2cc(Cl)cc(Cl)c2)C(=O)C1(C)Cc1cccc(Br)c1 (stereo not drawn) [Example 149] | 0.2 | 170 to 340 | – | > 10 | 2.9 | – | – | – | 10 | – | – | –
17 | CN1C(=O)N(c2cc(C(F)(F)F)cc(C(F)(F)F)c2)C(=O)[C@@]1(C)Cc1ccc(Br)cc1 [Example 100] | 0.19 | >400 | – | > 60 | 0.7 | – | – | – | 8 to 15 | – | – | –
18 | COC(=O)c1ccc(CC2(C)C(=O)N(c3cc(Cl)cc(Cl)c3)C(=O)N2C)cc1 (stereo not drawn) [Example 140] | 0.11 | 180 to 360 | – | > 10 | 0.2 | – | – | – | 1.2 | – | – | –
19 | CC(C)(C)N1C(=O)N(c2cc(Cl)cc(Cl)c2)C(=O)C1(C)Cc1ccc(Br)cc1 (stereo not drawn) [Example 177] | 0.25 | 155 to 310 | – | – | 3.7 | – | – | – | 7 to 14 | – | No inh^c | –
20 | C[C@]1(Cc2ccc(C(=O)c3ccccc3)cc2)NC(=O)N(c2cc(Cl)cc(Cl)c2)C1=O [Example 184] | 0.37 | 50 to 100 | – | – | – | – | – | – | 0.8 to 1.5 | – | No inh^c | 0.3
21 | C[C@@]1(Cc2ccc(Br)cc2)C(=O)N(c2cc(Cl)cc(Cl)c2)C(=O)N1C(=O)[C@H]1CCCN1 [Example 235] | – | 100 to 200 | – | – | 1.6 | 0.33 | 9 | No inh^c | – | – | – | –
22 | C[C@@]1(Cc2ccc(Br)cc2)C(=O)N(c2cc(Cl)cc(Cl)c2)C(=O)N1CCCCCCl [Example 121] | 0.21 | <11 | – | – | 25 | – | – | – | 0.8 to 2 | – | No inh^c | –
23 | C[C@@]1(Cc2ccc(Br)cc2)C(=O)N(c2cc(Cl)cc(Cl)c2)C(=O)N1CCCCCC#N [Example 257] | – | 300 | – | – | 0.6 | 0.08 | 1.6 | No inh^c | – | – | – | –
24 | CN1C(=O)N(c2cc(Cl)cc(Cl)c2)C(=O)C1(C)Cc1ccc(C(F)(F)F)cc1 (stereo not drawn) [Example 171] | 0.18 | 100 to 200 | – | – | 0.2 | – | – | – | 102 | – | No inh^c | –
25 | CN1C(=O)N(c2cc(Cl)cc(Cl)c2)C(=O)[C@@]1(C)Cc1ccccc1 [Example 266] | – | >500 | – | – | 3 | 0.14 | 25 to 50 | – | – | > 50 | – | –
26 | COCN1C(=O)N(c2cc(Cl)cc(Cl)c2)C(=O)[C@@]1(C)Cc1ccc(Br)cc1 [Example 131] | 0.2 | >400 | – | – | 1.1 | – | – | – | 3 to 5 | – | No inh^c | –
27 | C[C@@]1(Cc2ccc(Br)cc2)C(=O)N(c2cc(Cl)cc(Cl)c2)C(=O)N1C[C@H](O)c1ccccc1 [Example 132] | 0.22 | 200 to 400 | – | – | 2.4 | – | – | – | 5 | – | No inh^c | –
